Experiments:
[1] = target: T1, polypeptide consisting of the amino acid sequence of SEQ ID NO: 2 (Homo sapiens, UniProt Q9HCF6, R1695Q); assay: Calcium influx with calcium-sensitive fluorescent reagent (Fluo3-AM, FLIPR) in HEK293 transformants; assay type: cell-based; conditions: for EC50: method of Example 6, read-out: EC50 of activation (calcium influx)
T1 construct: expressed in transfected cells
Source text: (§1) To detect a channel activity of the polypeptide consisting of the amino acid sequence of SEQ ID NO: 2, animal cells were transfected with the expression vector pcDNA3.1-MLSN2 obtained in Example 1 to express the polypeptide. The expression vector pcDNA3.1-MLSN2 obtained in Example 1 and reagents for transfection (LIPOFECTAMINE or LIPOFECTAMINE2000; Invitrogen) were used to transform human embryonic kidney derived HEK293 cells (ATCC No.: CRL-1573) and induce the expression of the polypeptide consisting of the amino acid sequence of SEQ ID NO: 2. The cells transfected with LIPOFECTAMINE were used in Examples 4 and 5, and the cells transfected with LIPOFECTAMINE2000 were used in Examples 6, 7, and 16.
(§2) The transformants (4×10^4 cells) obtained in Example 3 were incubated at 37° C. for an hour in the presence of a calcium-sensitive fluorescent reagent (Fluo3-AM; DOJINDO), and the reagent was incorporated into the cells. The cells were washed with a physiological saline to remove the reagent not incorporated. A physiological saline supplemented with PS (final concentration=10 μmol/L) was added to the treated cells, and a time course of fluorescence emitted from the cells was measured using an automated fluorescence detector (FLIPR; Molecular Device). As controls, the same procedures were repeated, except that HEK293 cells transfected with pcDNA3.1(+) (i.e., control cells not expressing the polypeptide of SEQ ID NO: 2) were used, or except that a physiological saline without PS was used.
A screening of compounds (activating agents) capable of activating the polypeptide consisting of the amino acid sequence of SEQ ID NO: 2 was carried out. As an index of activation, a calcium influx into cells was detected by using a calcium-sensitive fluorescent reagent, more particularly, in accordance to the method described in Example 6.

[2] = tested on: HEK cells not expressing the polypeptide of SEQ ID NO: 2; assay: Calcium influx (Fluo3-AM, FLIPR) in control HEK293 cells; assay type: cell-based, human; conditions: for increase in fluorescent intensity: negative control cells
Procedure: as §2
Various compounds were examined, and, as a compound showing an increase in fluorescent intensity, N-[3-(2,6-dichlorophenyl)-5-methylisoxazole-4-yl]-N′-ethyl-N-methyl-N′-phenylurea (code no. SPB 00071; MAYBRIDGE), 3-(2,6-difluorophenyl)-4-(piperidine-1-ylmethyl)-1,3-thiazole-2(3H)-thion (code no. MS 1368; MERLIN), 3-(2,6-difluorophenyl)-4-(pyrrolidine-1-ylmethyl)-1,3-thiazole-2(3H)-thion (code no. MS 1370; MERLIN), and N-(2-acetyl-3-thienyl)-2-[(2-chloro-6-fluorobenzyl)sulfanil]acetamide (code no. GK 00678; Ryan Scientific) (hereinafter referred to as compounds A, B, C, and D, respectively) were found.

[3] = tested on: primary cultured neurons derived from the rat hippocampus; assay: Spontaneous excitatory postsynaptic currents (sEPSCs) by whole-cell patch-clamp in primary cultured neurons; assay type: cell-based; conditions: voltage-clamped at −60 mV
Source text: (§3) A pregnant rat was anesthetized with diethyl ether, and the chest (heart) was dissected to sacrifice the rat by exsanguination. An abdomen was opened, and the uterus was dissected. After a fetus was sterilized with rubbing alcohol in a clean bench, the whole brain was dissected and placed in a petri dish containing a culture medium for neurons (SUMILON; Sumitomo Bakelite). The cerebral cortex and the hippocampus were dissected with fine forceps under a stereomicroscope, and transferred to 50-mL tubes independently. Each tube was allowed to stand, to precipitate each tissue, and each supernatant was removed by suction. A solution for cell dissocition [phosphate buffered saline (PBS) supplemented with 1% papain, 150 U/mL DNase I, 0.02% L-cysteine, 0.02% bovine serum albumin (BSA), and 0.5% glucose] was added to each tube, incubated at 37° C. for 15 minutes, and centrifuged (1000 rpm, 4° C., 5 minutes). Each supernatant was removed by suction, and 10 mL of a serum-free medium was added to each tube. The whole in each tube was dispersed by pipetting several times, and cell debris was removed through a filter to obtain each cell suspension.
To confirm the effects of the activating agents on improving the memory, improving learning ability, and/or antidementia, any one of the compounds A, B, C, and D, which were found in Example 16 and can activate the polypeptide consisting of the amino acid sequence of SEQ ID NO: 2, was applied to the neurons to examine an activity of enhancing neurotransmission in the neurons. More particularly, effects of compounds A, B, C, and D on spontaneous excitatory postsynaptic currents (sEPSCs) in primary cultured neurons derived from the rat hippocampus, obtained in Example 13, were examined by a whole-cell patch-clamp method. The sEPSCs is a change of current generated in the neurons, when synaptic vesicles located at the terminus of another cell spontaneously exocytosis a neurotransmitter, and the former cell receives the released neurotransmitter. Therefore, neurotransmission between the neurons can be measured by measuring the sEPSCs (Journal of Neurophysiology, 76, 3159-3168, 1996; The Journal of Neuroscience, 19, 5311-5321, 1999). Further, it is known that the neurotransmission is suppressed by inhibiting the sEPSCs (Journal of Neuroscience Research, 72, 116-124, 2003).
More particularly, the cells (approximately 1×10^5 cells per dish) obtained in Example 13 were plated in a culture dish having a diameter of 35 mm, and cultured for 1 to 5 weeks. As a culture medium, a culture medium for the neurons (SUMILON; Sumitomo Bakelite) was used. Other procedures for cultivation were carried out in accordance with known methods (Methods in Neuroscience vol. 2, Cell culture, P. Michael Conn ed, Academic Press, Inc. 1990). The cell was voltage-clamped at −60 mV by a whole-cell voltage-clamp method, and a whole-cell current generated when PS or each compound was applied was measured (Yasunobu Okada ed., “Shin pacchi kuranpu jikken gijyutsu hou”, Yoshioka shoten, 2001). A solution containing 140 mmol/L NaCl, 5.4 mmol/L KCl, 2 mmol/L CaCl2, 0.8 mmol/L MgCl2, 15 mmol/L glucose, 10 mmol/L HEPES-Na (pH=7.4), 20 μmol/L bicuculline, and 1 μmol/L strychnine was used as an extracellular solution. A solution containing 100 mmol/L potassium gluconate, 10 mmol/L EGTA, 5 mmol/L MgCl2, 2 mmol/L K2ATP, 0.3 mmol/L Na2GTP, and 40 mmol/L HEPES-K (pH=7.25) was used as an intracellular solution.

[4] = tested on: primary cultured neurons derived from rat cerebral cortex; assay: Calcium influx in primary cultured neurons derived from rat cerebral cortex; assay type: cell-based
Source text: as §3
This example was carried out in accordance with known methods (Yoshihisa Kudo ed., Jikken Igaku, Supplement “Saibo-nai karushiumu jikken purotokoru”, 1996, Youdo-sha), except for the following procedures.
A time course of fluorescence emitted from cells was measured in accordance with the method described in Example 6, except that the primary cultured neurons (4×10^4 cells) derived from the rat brain (cerebral cortex), obtained in Example 13, were cultured for a week and used, and that the final concentration of PS was 10 μmol/L or 50 μmol/L. As a control, a physiological saline without PS was used.
Any one of compounds A, B, C, and D, and PS was applied to primary cultured neurons derived from the rat cerebral cortex obtained in Example 13, and a calcium influx into the neurons was measured. More particularly, the measurement was carried out in accordance with the method described in Example 14, except that the number of cells was 1×10^5 cells.

[5] = tested on: control cell not expressing the polypeptide of SEQ ID NO: 2; assay: Whole-cell voltage-clamp in control cell transfected with no expression vector; assay type: cell-based, human; conditions: same conditions as the transfected cell
Procedure: Each cell obtained in Example 3 was voltage-clamped by a whole-cell voltage-clamp method, and a whole-cell current generated when PS was applied was measured. A solution containing 149 mmol/L NaCl, 5 mmol/L KCl, 2 mmol/L CaCl2, 0.8 mmol/L MgCl2, and 10 mmol/L HEPES-Na (pH=7.4) was used as an extracellular solution, and a solution containing 147 mmol/L CsCl, 4.5 mmol/L EGTA, and 9 mmol/L HEPES-Cs(pH=7.2) was used as an intracellular solution.
(§4) When PS (100 μmol/L) was extracellularly applied to the cell transfected with plasmid pcDNA3.1-MLSN2 at a holding potential of −40 mV, an inward current (−5.8±0.9, n=10) was measured. After washing the cell, PS was applid thereto at a holding potential of +40 mV, a large outward current (108.9±19.3, n=10) was measured. A current-voltage relationship was measured using a voltage ramp during the response, an outward rectifier was observed.

hippocampal slices = conditions: non-patent references 3, 6 and 7; cited from earlier work
aged rats = conditions: non-patent reference 5; cited from earlier work
[6] = target: T1, polypeptide consisting of the amino acid sequence of SEQ ID NO: 2; assay: Whole-cell voltage-clamp detection of channel activity in transfected HEK293 cells; assay type: cell-based; conditions: n=10
Source text: as §1
Each cell obtained in Example 3 was voltage-clamped by a whole-cell voltage-clamp method, and a whole-cell current generated when PS was applied was measured. […]
as §4

[7] = final concentration 10 μmol/L, 1×10^5 cells

T1 sequence (Q9HCF6 154-1707 isoform Q9HCF6-2 R1670Q): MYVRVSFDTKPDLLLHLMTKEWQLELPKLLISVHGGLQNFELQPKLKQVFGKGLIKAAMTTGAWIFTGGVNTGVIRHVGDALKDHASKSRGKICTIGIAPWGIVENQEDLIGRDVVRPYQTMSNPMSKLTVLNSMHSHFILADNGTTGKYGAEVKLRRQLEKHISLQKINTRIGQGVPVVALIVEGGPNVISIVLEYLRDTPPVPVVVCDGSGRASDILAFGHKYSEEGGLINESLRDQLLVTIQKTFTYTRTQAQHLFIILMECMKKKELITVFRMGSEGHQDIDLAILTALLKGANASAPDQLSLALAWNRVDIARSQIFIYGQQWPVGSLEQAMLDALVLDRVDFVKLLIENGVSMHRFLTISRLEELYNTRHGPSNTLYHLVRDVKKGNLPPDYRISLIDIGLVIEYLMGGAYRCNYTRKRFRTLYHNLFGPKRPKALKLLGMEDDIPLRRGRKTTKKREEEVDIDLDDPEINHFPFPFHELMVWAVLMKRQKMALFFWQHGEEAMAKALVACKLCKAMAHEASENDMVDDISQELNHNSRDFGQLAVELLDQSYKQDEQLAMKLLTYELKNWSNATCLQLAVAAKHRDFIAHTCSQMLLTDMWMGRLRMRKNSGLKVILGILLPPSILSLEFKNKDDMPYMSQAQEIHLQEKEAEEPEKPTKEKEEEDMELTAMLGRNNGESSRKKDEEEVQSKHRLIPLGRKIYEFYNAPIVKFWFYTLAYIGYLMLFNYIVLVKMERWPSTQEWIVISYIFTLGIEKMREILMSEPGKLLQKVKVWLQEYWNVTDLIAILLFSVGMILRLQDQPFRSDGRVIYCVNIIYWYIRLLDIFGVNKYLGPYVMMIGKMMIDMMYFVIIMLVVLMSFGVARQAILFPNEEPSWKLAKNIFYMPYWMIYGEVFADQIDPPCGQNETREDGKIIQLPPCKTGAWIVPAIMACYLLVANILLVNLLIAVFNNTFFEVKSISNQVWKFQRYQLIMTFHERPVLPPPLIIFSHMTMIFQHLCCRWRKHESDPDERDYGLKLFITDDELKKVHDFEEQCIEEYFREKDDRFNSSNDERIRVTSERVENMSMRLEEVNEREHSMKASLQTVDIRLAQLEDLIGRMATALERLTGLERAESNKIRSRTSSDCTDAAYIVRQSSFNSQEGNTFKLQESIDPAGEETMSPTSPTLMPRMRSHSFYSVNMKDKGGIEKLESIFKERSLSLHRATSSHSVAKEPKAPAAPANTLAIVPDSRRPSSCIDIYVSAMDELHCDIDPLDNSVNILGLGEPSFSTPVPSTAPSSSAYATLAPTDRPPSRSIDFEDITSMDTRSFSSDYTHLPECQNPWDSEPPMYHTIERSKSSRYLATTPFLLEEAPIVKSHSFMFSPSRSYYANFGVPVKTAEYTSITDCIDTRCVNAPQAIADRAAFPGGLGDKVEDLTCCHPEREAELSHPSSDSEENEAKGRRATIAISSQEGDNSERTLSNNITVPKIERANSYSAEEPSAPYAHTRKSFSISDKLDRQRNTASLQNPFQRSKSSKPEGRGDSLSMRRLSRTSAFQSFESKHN

Molecule	EC50 [1] [µM]	increase in fluorescent intensity [2]	enhancement of sEPSCs ([3]; 10 μmol/L)	increase in fluorescent intensity (calcium influx) [4, 7]	whole-cell currents on PS application [5]	increase in fluorescent intensity (calcium influx) ([1]; final concentration 10 μmol/L, immediately after addition)	fluorescent intensity (calcium influx) ([2]; PS 10 μmol/L, HEK293 cells transfected with pcDNA3.1(+))	increase in fluorescent intensity (calcium influx) ([4]; 10 μmol/L, 4×10^4 cells cultured for a week)	increase in fluorescent intensity (calcium influx) ([4]; 50 μmol/L, 4×10^4 cells cultured for a week)	neurotransmission (acetylcholine release, hippocampal spike frequency, LTP) (hippocampal slices)	memory and learning ability (aged rats)	inward current ([6]; PS 100 μmol/L applied extracellularly, holding potential −40 mV)	outward current ([6]; PS applied after washing, holding potential +40 mV)	enhancement of sEPSCs ([3]; 1 μmol/L)
CCN(C(=O)N(C)c1c(-c2c(Cl)cccc2Cl)noc1C)c1ccccc1 [compound A, N-[3-(2,6-dichlorophenyl)-5-methylisoxazole-4-yl]-N′-ethyl-N-methyl-N′-phenylurea]	9.8	such an increase in fluorescent intensity was not detected	the enhancement of sEPSCs was detected	an increase in fluorescent intensity was detected										
Pregnenolone sulfate [PS, reference compound]			the enhancement of sEPSCs was similarly detected	an increase in fluorescent intensity was detected	such currents were not observed	approximately 10,000 counts	approximately 0 count	an increase in fluorescent intensity was detected	an increase in fluorescent intensity was detected	enhancement of neurotransmission	the memory and learning ability were improved	−5.8±0.9	108.9±19.3	
Fc1cccc(F)c1-n1c(CN2CCCC2)csc1=S [compound C, 3-(2,6-difluorophenyl)-4-(pyrrolidine-1-ylmethyl)-1,3-thiazole-2(3H)-thion]	1.9	such an increase in fluorescent intensity was not detected	the enhancement of sEPSCs was detected	an increase in fluorescent intensity was detected										
CC(=O)c1sccc1NC(=O)CSCc1c(F)cccc1Cl [compound D, N-(2-acetyl-3-thienyl)-2-[(2-chloro-6-fluorobenzyl)sulfanil]acetamide]	3.5	such an increase in fluorescent intensity was not detected		an increase in fluorescent intensity was detected										the enhancement of sEPSCs was detected
Fc1cccc(F)c1-n1c(CN2CCCCC2)csc1=S [compound B, 3-(2,6-difluorophenyl)-4-(piperidine-1-ylmethyl)-1,3-thiazole-2(3H)-thion]	6.8	such an increase in fluorescent intensity was not detected	the enhancement of sEPSCs was detected	an increase in fluorescent intensity was detected										

Source: patent publication US7476508B2, “Method of screening agent for improving memory and learning ability” (Astellas Pharma Inc., priority 2003, dated 2009)
